# Laboratory results from patent publication US7375180B2, “Methods and compositions related to IRM compounds and Toll-like receptor 8” (3M Innovative Properties Company, priority 2003, dated 2008).
# Key:
# TLR8 [1] = molecular target: T1, TLR8 (Homo sapiens, UniProt Q9NR97); assay: Identification as TLR8 activator or non-activator (negative control compound); format: cell-based; settings: used as negative control in monocyte, dendritic cell and macrophage tests
# T1 sequence (Q9NR97 27-1041): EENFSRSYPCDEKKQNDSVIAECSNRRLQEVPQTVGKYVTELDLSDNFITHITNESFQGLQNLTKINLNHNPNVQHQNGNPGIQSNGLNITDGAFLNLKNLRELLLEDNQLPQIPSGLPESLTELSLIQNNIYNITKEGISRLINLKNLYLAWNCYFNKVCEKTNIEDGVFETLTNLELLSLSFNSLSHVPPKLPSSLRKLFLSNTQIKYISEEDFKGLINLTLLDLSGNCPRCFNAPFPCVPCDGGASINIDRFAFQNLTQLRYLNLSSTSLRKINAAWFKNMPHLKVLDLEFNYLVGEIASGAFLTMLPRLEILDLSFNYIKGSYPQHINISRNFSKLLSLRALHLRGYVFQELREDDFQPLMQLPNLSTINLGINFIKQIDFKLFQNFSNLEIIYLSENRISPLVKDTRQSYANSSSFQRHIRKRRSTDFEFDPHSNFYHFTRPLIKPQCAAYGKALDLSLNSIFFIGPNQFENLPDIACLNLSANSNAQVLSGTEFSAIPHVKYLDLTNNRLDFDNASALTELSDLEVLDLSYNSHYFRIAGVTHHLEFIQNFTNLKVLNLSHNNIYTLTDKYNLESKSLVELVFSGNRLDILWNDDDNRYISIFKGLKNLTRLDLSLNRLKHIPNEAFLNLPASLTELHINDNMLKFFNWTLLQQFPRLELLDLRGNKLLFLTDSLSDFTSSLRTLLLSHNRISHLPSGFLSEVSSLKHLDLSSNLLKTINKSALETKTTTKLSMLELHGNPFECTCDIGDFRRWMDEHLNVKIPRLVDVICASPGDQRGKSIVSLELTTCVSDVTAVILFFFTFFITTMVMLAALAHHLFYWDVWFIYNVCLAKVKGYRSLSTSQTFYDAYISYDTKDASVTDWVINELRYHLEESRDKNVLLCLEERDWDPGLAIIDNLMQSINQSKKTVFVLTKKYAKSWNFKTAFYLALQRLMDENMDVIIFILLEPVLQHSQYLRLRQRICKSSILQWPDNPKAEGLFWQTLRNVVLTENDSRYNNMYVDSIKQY
# HEK293-vector = assay: NF-κB-luciferase reporter activation in HEK293-vector control cells, 10 μM IRM (Example 1); format: cell-based, human; settings: 16 hours, luciferase signal, vector-transfected cells; for fold induction at 10 µM: Homo sapiens, read-out: Fold Increase Over DMSO Control, HEK293-vector
# Description: (§1) HEK293 cells, derived from human embryonic kidney cells, may be co-transfected with (1) either a control vector (HEK293-vector) or a vector construct including human TLR8 (HEK293-TLR8), and (2) an NF-κB-luciferase reporter. The NF-κB-luciferase reporter provides a luciferase signal upon NF-κB activation in a transfected cell. Thus, TLR8-mediated NF-κB activity can be detected by exposing the cells transfected with vector and the cells transfected with the TLR8 construct to a test compound, then comparing the luciferase signal of the vector-transfected cells with the luciferase signal of the cells transfected with the TLR8 construct.
# (§2) HEK293 cells were cultured in 90% Minimum Essential Medium (MEM) with 2 mM L-glutamine and Earle's Balanced Salt Solution (Invitrogen Corp., Rockville, Md.) adjusted to contain 1.5 g/L sodium bicarbonate, 0.1 mM non-essential amino acids, and 1.0 mM sodium pyruvate; 10% heat-inactivated fetal calf serum. The cells were incubated at 37° C., 8% CO2.
# (§3) The cells were co-transfected with (1) pIRES (BD Biosciences Clontech, Palo Alto, Calif.) either (a) unmodified (HEK293-vector) or (b) containing human TLR8 (HEK293-TLR8), and (2) NFkB-luc reporter (Stratagene, La Jolla, Calif.) in a 10:1 ratio with Fugene 6 transfection reagent (Roche Diagnostics Corp., Indianapolis, Ind.) following the manufacturer's instructions.
# (§4) The cells were stimulated with 1 μL of IRM compounds at 1 mM in DMSO (final IRM concentration of 10 μM) or 1 μL DMSO as a control. The plates were then incubated an additional 16 hours at 37° C., 5% CO2. Luminescence was measured on an LMAX luminometer (Molecular Devices Corp., Sunnyvale, Calif.).
# TLR8 [2] = molecular target: T1, TLR8; assay: NF-κB-luciferase reporter activation in HEK293-TLR8 cells, 10 μM IRM (Example 1); format: cell-based; design: expressed in transfected cells; host or cells: HEK293 (ATCC CRL-1573), pIRES vector, G-418 selected, co-transfected with NFkB-luc reporter; settings: for Fold Increase Over DMSO Control, HEK293-TLR8: 16 hours, luciferase signal, TLR8-transfected cells; for Fold Increase Over DMSO Control, HEK293-TLR8 / HEK293-vector: ratio of TLR8-transfected to vector-transfected cells
# Description: as §1, §2, §3, §4
SMILES,TLR8 activation (in words) (TLR8 [1]),fold induction at 10 µM (HEK293-vector),"Fold Increase Over DMSO Control, HEK293-TLR8 (TLR8 [2]) [fold]","Fold Increase Over DMSO Control, HEK293-TLR8 / HEK293-vector (TLR8 [2])","Fold Increase Over DMSO Control, HEK293-vector (HEK293-vector) [fold]"
"CCc1nc2c(N)nc3ccccc3c2n1CCCCNS(C)(=O)=O [IRM 16, N-[4-(4-amino-2-ethyl-1H-imidazo[4,5-c]quinolin-1-yl)butyl]methanesulfonamide]",does not activate TLR8,,,,
"CCc1nc2c(N)nc3ccccc3c2n1CCCCS(=O)(=O)c1cc(Cl)cc(Cl)c1 [IRM 12, 1-{4-[(3,5-dichlorophenyl)sulfonyl]butyl}-2-ethyl-1H-imidazo[4,5-c]quinolin-4-amine]",,1.16,6.04,5.2,
"CCOCc1nc2c(N)nc3ccccc3c2n1CCOCCCOCc1ccccc1 [IRM 4, 1-{2-[3-(benzyloxy)propoxy]ethyl}-2-(ethoxymethyl)-1H-imidazo[4,5-c]quinolin-4-amine]",,0.41,2.64,6.4,
"CCCCc1nc2c(N)nc3ccccc3c2n1CCNS(C)(=O)=O [IRM 9, N-[2-(4-amino-2-butyl-1H-imidazo[4,5-c]quinolin-1-yl)ethyl]methanesulfonamide]",,0.77,8.64,11.2,
"CCOCc1nc2c(N)nc3ccccc3c2n1CCCNC(=S)Nc1cccc(C#N)c1 [IRM 14, N-{3-[4-amino-2-(ethoxymethyl)-1H-imidazo[4,5-c]quinolin-1-yl]propyl}-n′-(3-cyanophenyl)thiourea]",,,10.00,7.9,1.26
"CCCCNC(=O)NCCCCn1c(CCCC)nc2c(N)nc3cccnc3c21 [IRM 5, N-[4-(4-amino-2-butyl-1H-imidazo[4,5-c][1,5]naphthyridin-1-yl)butyl]-n′-butylurea]",,,2.13,2.5,0.84
"COCCc1nc2c(N)nc3ccccc3c2n1CCOCCNC(=O)Nc1ccccc1 [IRM 10, N-(2-{2-[4-amino-2-(2-methoxyethyl)-1H-imidazo[4,5-c]quinolin-1-yl]ethoxy}ethyl)-n′-phenylurea]",,,7.25,6.7,1.08
"Nc1nc2ccccc2c2c1ncn2CCOCC#Cc1ccncc1.O=C(O)C(F)(F)F.O=C(O)C(F)(F)F [IRM 8, 1-(2-{[3-(4-pyridyl)-2-propynyl]oxy}ethyl)-1H-imidazo[4,5-c]quinolin-4-amine bis(trifluoroacetate)]",,1.18,2.38,2.0,
"CCOCc1nc2c(N)nc3ccccc3c2n1CC(C)(C)N [IRM 11, 1-(2-amino-2-methylpropyl)-2-(ethoxymethyl)-1H-imidazo[4,5-c]quinolin-4-amine]",,1.47,3.14,2.1,
